What was measured:
[1] = Chemical stability of the compound; format: physicochemical
[2] = Cytotoxicity against CD70 deficient human L540cy cells expressing CD30 after 96 hrs; format: functional, cell-based
CAKI-1 = assay: Cytotoxicity against CD30 deficient human Caki1 cells expressing CD70 after 96 hrs; format: functional, cell-based; conditions: CAKI-1, 96 h

## C=C(C)CC(OC)[C@H](O)C(=O)N[C@@H](OC)[C@@H]1C[C@@H](O)C(C)(C)[C@@H](C[C@H](O)[C@@H](C)[C@H]2Cc3c(C)c(O)cc(O)c3C(=O)O2)O1 (stereo partly drawn) [IRCINIASTATIN A]
[1]
  Stability: Stable
[2]
  IC50: 0.7 nM
CAKI-1
  IC50: 0.3 nM
